Results: ChEMBL document CHEMBL2034861, “Tyrosyl-DNA phosphodiesterase 1 inhibitor from an anamorphic fungus” (J Nat Prod, 2012)
pIC50: −log10 of the molar value.

Columns and labels:
[1] = test system: HT-29; assay: Antiproliferative activity against human HT-29 cells after 48 hrs by WST-8 assay; assay type: functional, cell-based; conditions: HT-29, 48 h
[2] = test system: Mus musculus; assay: Toxicity in nude mouse KSN assessed as weight loss at 2 mg/kg, ip qd administered every other day for 19 days measured on day 21 relative to vehicle treated control; assay type: organism-based; set-up: dose 2 mg/kg, route intraperitoneal; conditions: in vivo, 456 h
[3] = Antiproliferative activity against human NAMALWA cells after 48 hrs by WST-8 assay; assay type: functional, cell-based; conditions: NAMALVA
[4] = test system: Mus musculus; assay: Toxicity in nude mouse KSN assessed as adverse effects at 2 mg/kg, ip qd administered every other day for 19 days measured on day 21 relative to vehicle treated control; assay type: organism-based; set-up: dose 2 mg/kg, route intraperitoneal; conditions: in vivo, 456 h
[5] = target: Tyrosyl-DNA phosphodiesterase 1 (Homo sapiens, UniProt Q9NUW8); assay: Inhibition of human Tdp1 using 3'-phosphate-(4-methylumbelliferone)-thymidine as substrate after 180 mins by spectrophotometry
Tyrosyl-DNA phosphodiesterase 1, sequence (Q9NUW8 whole entry): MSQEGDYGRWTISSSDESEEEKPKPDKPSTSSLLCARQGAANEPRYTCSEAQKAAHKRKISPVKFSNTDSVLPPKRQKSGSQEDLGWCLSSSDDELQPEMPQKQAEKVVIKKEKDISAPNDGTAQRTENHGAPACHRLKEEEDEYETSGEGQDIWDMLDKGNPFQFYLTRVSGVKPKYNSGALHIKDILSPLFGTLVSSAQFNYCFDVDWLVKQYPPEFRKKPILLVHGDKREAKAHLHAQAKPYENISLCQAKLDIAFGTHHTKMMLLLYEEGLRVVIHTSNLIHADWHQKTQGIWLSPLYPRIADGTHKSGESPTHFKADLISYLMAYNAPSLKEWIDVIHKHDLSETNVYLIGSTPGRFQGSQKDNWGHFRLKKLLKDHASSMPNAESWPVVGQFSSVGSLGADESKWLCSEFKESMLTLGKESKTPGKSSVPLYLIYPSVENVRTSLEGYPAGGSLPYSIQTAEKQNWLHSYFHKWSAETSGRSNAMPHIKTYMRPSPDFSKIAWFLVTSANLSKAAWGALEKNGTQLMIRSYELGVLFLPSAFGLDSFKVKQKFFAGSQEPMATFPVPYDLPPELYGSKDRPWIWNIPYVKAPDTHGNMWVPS

[6] = test system: HT-29; assay: Antitumor activity against human HT-29 cells xenografted in nude mouse KSN assessed as reduction in tumor volume at 2 mg/kg, ip qd administered every other day from day 7 post-tumor injection for 19 days measured on day 21 relative to vehicle treated control; assay type: functional; conditions: route intraperitoneal
[7] = test system: HeLa; assay: Antiproliferative activity against human HeLa cells after 48 hrs by WST-8 assay; assay type: functional, cell-based
[8] = test system: NCI-H2052; assay: Antiproliferative activity against human NCI-H2052 cells after 48 hrs by WST-8 assay; assay type: functional, cell-based; conditions: NCI-H2052, 48 h

pIC50 [1]: 5.40
pIC50 [5]: 4.74
pIC50 [7]: 5.04
pIC50 [8]: 4.89
SMILES: CCCCC(C)C1=CC(=O)C2=C(O[C@]3(C)CC[C@H]4O[C@@H]([C@@](C)(O)C(=O)O)CC[C@]4(C)[C@H]3C2)C1=O (stereo partly drawn)
Activity [2]: Non-toxic
pIC50 [3]: 5.46
Activity [4]: Non-toxic
T/C [6]: 0.51
